Measurements published in US4362743A, “Antibacterial monic acid esters” (Beecham Group Limited, priority 1980, dated 1982).
≈ marks a conversion by molar mass, not a printed value.

Legend:
[1] = tested on: M. suipneumoniae NB12; assay: Anti-mycoplasmal activity in vitro MIC; format: cell-based; settings: Mesomycoplasma hyopneumoniae, 144 h; M. suipneumoniae NB12; Friis broth, 0.9% agarose, 6 days 37° C.; read-out: M.I.C.
[2] = tested on: M. suipneumoniae HK (2); assay: Anti-mycoplasmal activity in vitro MIC; format: cell-based; settings: Mesomycoplasma hyopneumoniae, 144 h
[3] = tested on: M. suipneumoniae J2206/183b; assay: Anti-mycoplasmal activity in vitro MIC; format: cell-based; settings: Mesomycoplasma hyopneumoniae, J2206/183B, 144 h
[4] = tested on: M. suipneumoniae MS16; assay: Anti-mycoplasmal activity in vitro MIC; format: cell-based; settings: Mesomycoplasma hyopneumoniae, 144 h; M. suipneumoniae MS16; Friis broth, 0.9% agarose, 6 days 37° C.; read-out: M.I.C.
[5] = tested on: M. suipneumoniae PW/C/210; assay: Anti-mycoplasmal activity in vitro MIC; format: cell-based; settings: Mesomycoplasma hyopneumoniae, 144 h; M. suipneumoniae PW/C/210; Friis broth, 0.9% agarose, 6 days 37° C.; read-out: M.I.C.
[6] = tested on: M. suipneumoniae LABER; assay: Anti-mycoplasmal activity in vitro MIC; format: cell-based; settings: Mesomycoplasma hyopneumoniae, 144 h; M. suipneumoniae LABER; Friis broth, 0.9% agarose, 6 days 37° C.; read-out: M.I.C.
[7] = tested on: M. suipneumoniae TAM 6N; assay: Anti-mycoplasmal activity in vitro MIC; format: cell-based; settings: Mesomycoplasma hyopneumoniae, TAM6N, 144 h
[8] = tested on: M. suipneumoniae ATCC 25095; assay: Anti-mycoplasmal activity in vitro MIC; format: cell-based; settings: Mesomycoplasma hyopneumoniae, ATCC25095, 144 h
[9] = tested on: M. hyorhinis ATCC 25021; assay: Anti-mycoplasmal activity in vitro MIC; format: cell-based; settings: Mesomycoplasma hyorhinis, ATCC25021, 144 h; M. hyorhinis ATCC 25021; Friis broth, 0.9% agarose, 6 days 37° C.; read-out: M.I.C.
[10] = tested on: M. hyosynoviae ATCC 25591; assay: Anti-mycoplasmal activity in vitro MIC; format: cell-based; settings: 144 h; M. hyosynoviae ATCC 25591; Friis broth, 0.9% agarose, 6 days 37° C.; read-out: M.I.C.
[11] = tested on: M. bovigenitalium ATCC 14173; assay: Anti-mycoplasmal activity in vitro MIC; format: cell-based; settings: 144 h
[12] = tested on: M. dispar NCTC 10125; assay: Anti-mycoplasmal activity in vitro MIC; format: cell-based; settings: 144 h; M. dispar NCTC 10125; Friis broth, 0.9% agarose, 6 days 37° C.; read-out: M.I.C.
[13] = tested on: M. gallisepticum S6; assay: Anti-mycoplasmal activity in vitro MIC; format: cell-based; settings: Mycoplasmoides gallisepticum, 144 h; M. gallisepticum S6; Friis broth, 0.9% agarose, 6 days 37° C.; read-out: M.I.C.
[14] = tested on: E. coli El; assay: Veterinary bacteria MIC; format: cell-based; settings: Escherichia coli; E. coli El; Diagnostic Sensitivity Test Agar, 18 hours 37° C.; read-out: M.I.C.
Method: (§1) The values were determined using a two fold serial dilutions in Diagnostic Sensitivity Test Agar with an inoculum of 10^4 organisms and incubation for 18 hours at 37° C.

[15] = tested on: E. coli NCTC 10418; assay: Veterinary bacteria MIC; format: cell-based; settings: Escherichia coli, NCTC10418; E. coli NCTC 10418; Diagnostic Sensitivity Test Agar, 18 hours 37° C.; read-out: M.I.C.
Method: as §1

[16] = tested on: Erysipelothrix rhusiopathiae NCTC 8163; assay: Veterinary bacteria MIC; format: cell-based; settings: NCTC8163; Erysipelothrix rhusiopathiae NCTC 8163; Diagnostic Sensitivity Test Agar, 18 hours 37° C.; read-out: M.I.C.
Method: as §1

[17] = tested on: Past. haemolytica PA5; assay: Veterinary bacteria MIC; format: cell-based; settings: Mannheimia haemolytica; Past. haemolytica PA5; Diagnostic Sensitivity Test Agar, 18 hours 37° C.; read-out: M.I.C.
Method: as §1

[18] = tested on: Past. multocida PA1; assay: Veterinary bacteria MIC; format: cell-based; settings: Pasteurella multocida, Diagnostic Sensitivity Test Agar, 18 hours 37° C.
Method: as §1

[19] = tested on: Past. multocida PA2; assay: Veterinary bacteria MIC; format: cell-based; settings: Pasteurella multocida, PA2, 18 h
Method: as §1

[20] = tested on: S. dublin S7; assay: Veterinary bacteria MIC; format: cell-based; settings: Salmonella enterica; S. dublin S7; Diagnostic Sensitivity Test Agar, 18 hours 37° C.; read-out: M.I.C.
Method: as §1

[21] = tested on: S. typhimurium S18; assay: Veterinary bacteria MIC; format: cell-based; settings: Salmonella enterica; S. typhimurium S18; Diagnostic Sensitivity Test Agar, 18 hours 37° C.; read-out: M.I.C.
Method: as §1

[22] = tested on: Staph. aureus 152 (pen. sens); assay: Veterinary bacteria MIC; format: cell-based; settings: Staphylococcus aureus, Diagnostic Sensitivity Test Agar, 18 hours 37° C.
Method: as §1

[23] = tested on: Staph. aureus B4 (pen. resistant); assay: Veterinary bacteria MIC; format: cell-based; settings: Staphylococcus aureus, Diagnostic Sensitivity Test Agar, 18 hours 37° C.
Method: as §1

[24] = tested on: Staph. aureus Oxford; assay: Veterinary bacteria MIC; format: cell-based; settings: Staphylococcus aureus, Diagnostic Sensitivity Test Agar, 18 hours 37° C.
Method: as §1

[25] = tested on: Strep. agalactiae SPA1; assay: Veterinary bacteria MIC; format: cell-based; settings: Streptococcus agalactiae, Diagnostic Sensitivity Test Agar, 18 hours 37° C.
Method: as §1

[26] = tested on: Strep. dysgalactiae SPD1; assay: Veterinary bacteria MIC; format: cell-based; settings: Streptococcus dysgalactiae, Diagnostic Sensitivity Test Agar, 18 hours 37° C.
Method: as §1

[27] = tested on: Strep. suis (Group D) SPS11; assay: Veterinary bacteria MIC; format: cell-based; settings: Streptococcus suis; Strep. suis (Group D) SPS11; Diagnostic Sensitivity Test Agar, 18 hours 37° C.; read-out: M.I.C.
Method: as §1

[28] = tested on: Strep. uberis SPU1; assay: Veterinary bacteria MIC; format: cell-based; settings: Streptococcus uberis, Diagnostic Sensitivity Test Agar, 18 hours 37° C.
Method: as §1

[29] = tested on: Sarcina lutea 8340; assay: Human bacteria MIC; format: cell-based; settings: Micrococcus luteus; Sarcina lutea 8340; nutrient agar, 5% chocolated horse blood, 18 hours 37° C.; read-out: M.I.C.
Method: The values were determined by serial dilutions in nutrient agar with 5% chocolated horse blood after incubations for 18 hours at 37° C.

[30] = Serum binding by ultrafiltration; format: in vitro ADME; settings: pig, porcine serum, 8 mcg/ml, read-out: % bound to pig serum (converted)
Method: Serum binding was assessed by ultrafiltration of porcine serum containing compounds at 8 mcg/ml, and through an Amicon CF50A ultrafiltration cone. Separation of ultrafiltrate was achieved by centrifugation. Unbound concentrations of compound were measured in the ultrafiltrate by microbiological assay (B. subtilis ATCC 6633) against standards prepared in saline.

C/C(=C\C(=O)OCCCC(=NO)c1cccs1)C[C@@H]1OC[C@H](C[C@@H]2O[C@H]2[C@@H](C)[C@H](C)O)[C@@H](O)[C@H]1O [Example 4, 4-Hydroxyimino-4-(2-thienyl)butyl monate A]
MIC [1]: 0.25 mg/L (≈ 0.489 µM) | MIC [2]: 0.5 mg/L (≈ 0.977 µM) | MIC [3]: 0.5 mg/L (≈ 0.977 µM) | MIC [4]: 0.25 mg/L (≈ 0.489 µM) | MIC [5]: 0.25 mg/L (≈ 0.489 µM) | MIC [6]: 0.25 mg/L (≈ 0.489 µM) | MIC [7]: 0.5 mg/L (≈ 0.977 µM) | MIC [8]: 0.5 mg/L (≈ 0.977 µM) | MIC [9]: 0.25 mg/L (≈ 0.489 µM) | MIC [10]: 0.25 mg/L (≈ 0.489 µM) | MIC [11]: 0.05 mg/L (≈ 0.0977 µM) | MIC [12]: 0.1 mg/L (≈ 0.195 µM) | MIC [13]: 10 mg/L (≈ 19.5 µM) | MIC [14]: > 80 mg/L | MIC [15]: > 80 mg/L | MIC [16]: 20 mg/L (≈ 39.1 µM) | MIC [17]: 20 mg/L (≈ 39.1 µM) | MIC [18]: 2.5 mg/L (≈ 4.89 µM) | MIC [19]: 0.156 mg/L (≈ 0.305 µM) | MIC [20]: > 80 mg/L | MIC [21]: > 80 mg/L | MIC [22]: 0.312 mg/L (≈ 0.61 µM) | MIC [23]: 0.625 mg/L (≈ 1.22 µM) | MIC [24]: 0.312 mg/L (≈ 0.61 µM) | MIC [25]: 0.625 mg/L (≈ 1.22 µM) | MIC [26]: 0.625 mg/L (≈ 1.22 µM) | MIC [27]: 10 mg/L (≈ 19.5 µM) | MIC [28]: 0.312 mg/L (≈ 0.61 µM) | MIC [29]: > 100 mg/L | fraction unbound [30]: < 0.039
